Reference: article PMC5909127, “Optimization of a “bump-and-hole” approach to allele-selective BET bromodomain inhibition” (Chemical Science, 2018)

What was measured:
BRD4 BD2 L/V [1] = biological target: T1, BRD4 BD2 L/V (Homo sapiens, UniProt O60885, L387V); assay: competitive AlphaLISA; type: binding
BRD3 BD1 WT [2] = biological target: T2, BRD3 BD1 WT (Homo sapiens, UniProt Q15059); assay: competitive AlphaLISA; type: binding
BRDT BD1 WT = BRDT BD1 WT (Homo sapiens, UniProt Q58F21); assay: competitive AlphaLISA; type: binding
BRD2 BD1 WT [3] = biological target: T3, BRD2 BD1 WT (Homo sapiens, UniProt P25440); assay: ITC; type: binding
T3 sequence (P25440 71-176): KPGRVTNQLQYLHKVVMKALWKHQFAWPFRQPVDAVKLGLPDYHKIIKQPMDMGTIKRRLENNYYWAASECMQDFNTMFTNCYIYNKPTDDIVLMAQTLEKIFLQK

BRD3 BD1 WT [4] = biological target: T2, BRD3 BD1 WT; assay: ITC; type: binding
BRD4 BD1 WT [5] = biological target: T4, BRD4 BD1 WT (Homo sapiens, UniProt O60885); assay: ITC; type: binding
BRD2 BD1 L/V [6] = biological target: T5, BRD2 BD1 L/V (Homo sapiens, UniProt P25440, L110V); assay: ITC; type: binding
T5 sequence (P25440 71-176 L110V limits assumed): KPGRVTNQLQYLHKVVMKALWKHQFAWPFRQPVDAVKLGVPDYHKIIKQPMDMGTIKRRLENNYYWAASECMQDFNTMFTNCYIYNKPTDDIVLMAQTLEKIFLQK

BRDT BD1 L/V = BRDT BD1 L/V (Homo sapiens, UniProt Q58F21, L63V); assay: competitive AlphaLISA; type: binding
[7] = test system: L/V BET bromodomains (BD1 and BD2 of BRD2, BRD3 and BRD4); assay: competitive AlphaLISA (Bio-JQ1 displacement); type: binding, human; details: for AlphaLISA pIC50 ± SD Δ: L/V minus WT; for AlphaLISA pIC50 ± SD L/V: mean and SD of all somatic bromodomains, active enantiomer concentration
BRD3 BD1 L/V [8] = biological target: T6, BRD3 BD1 L/V (Homo sapiens, UniProt Q15059, L70V); assay: competitive AlphaLISA; type: binding
T6 sequence (Q15059 24-144 L70V limits assumed): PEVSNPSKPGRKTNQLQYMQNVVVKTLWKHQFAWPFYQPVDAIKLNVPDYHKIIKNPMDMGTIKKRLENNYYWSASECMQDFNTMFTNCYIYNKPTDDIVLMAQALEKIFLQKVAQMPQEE

BRD2 BD1 WT [9] = biological target: T3, BRD2 BD1 WT; assay: competitive AlphaLISA; type: binding
BRD2 BD2 L/V [10] = biological target: T7, BRD2 BD2 L/V (Homo sapiens, UniProt P25440, L383V); assay: ITC; type: binding
T7 sequence (P25440 344-455 L383V): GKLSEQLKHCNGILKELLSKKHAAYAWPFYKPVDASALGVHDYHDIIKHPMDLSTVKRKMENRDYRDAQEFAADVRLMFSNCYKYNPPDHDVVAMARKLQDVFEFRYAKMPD

[11] = test system: L/V somatic BET bromodomains; assay: ITC; details: for ITC pKd ± SD Δ: L/V minus WT
BRD3 BD2 L/V [12] = biological target: T8, BRD3 BD2 L/V (Homo sapiens, UniProt Q15059, L345V); assay: ITC; type: binding
T8 sequence (Q15059 306-416 L345V limits assumed): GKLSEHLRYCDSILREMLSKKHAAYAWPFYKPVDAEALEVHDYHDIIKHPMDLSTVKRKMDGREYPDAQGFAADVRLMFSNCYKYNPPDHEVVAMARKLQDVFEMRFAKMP

BRD3 BD1 L/V [13] = biological target: T6, BRD3 BD1 L/V; assay: ITC; type: binding
BRD4 BD1 L/V [14] = biological target: T9, BRD4 BD1 L/V (Homo sapiens, UniProt O60885, L94V); assay: competitive AlphaLISA; type: binding
BRD2 BD2 WT [15] = biological target: T10, BRD2 BD2 WT (Homo sapiens, UniProt P25440); assay: competitive AlphaLISA; type: binding
T10 sequence (P25440 344-455): as the sequence (P25440 344-455 L383V) above, with V40L counted along it

BRD3 BD2 WT [16] = biological target: T11, BRD3 BD2 WT (Homo sapiens, UniProt Q15059); assay: competitive AlphaLISA; type: binding
T11 sequence (Q15059 306-416): as the sequence (Q15059 306-416 L345V limits assumed) above, with V40L counted along it

BRD3 BD2 L/V [17] = biological target: T8, BRD3 BD2 L/V; assay: competitive AlphaLISA; type: binding
BRD4 BD1 WT [18] = biological target: T4, BRD4 BD1 WT; assay: competitive AlphaLISA; type: binding
BRD2 BD2 WT [19] = biological target: T10, BRD2 BD2 WT; assay: ITC; type: binding
in vitro = details: PAMPA, pH 7.4
BRD4 BD1 L/V [20] = biological target: T9, BRD4 BD1 L/V; assay: ITC; type: binding; details: for Kd: Kd BRD4 BD1 L/V
BRD2 BD1 L/V [21] = biological target: T5, BRD2 BD1 L/V; assay: competitive AlphaLISA; type: binding
BRDT BD2 WT = BRDT BD2 WT (Homo sapiens, UniProt Q58F21); assay: competitive AlphaLISA; type: binding
BRD2 BD2 L/V [22] = biological target: T7, BRD2 BD2 L/V; assay: competitive AlphaLISA; type: binding
Plasma Half-life = details: BALB/c, mouse, pH 7.4
[23] = biological target: WT BET bromodomains (BD1 and BD2 of BRD2, BRD3 and BRD4); assay: competitive AlphaLISA (Bio-JQ1 displacement); type: binding, human; details: mean and SD of all somatic bromodomains; active enantiomer concentration
Intrinsic Clearance = details: mouse liver microsomes
BRD4 BD2 L/V [24] = biological target: T1, BRD4 BD2 L/V; assay: ITC; type: binding
BRD4 BD2 WT [25] = biological target: T12, BRD4 BD2 WT (Homo sapiens, UniProt O60885); assay: ITC; type: binding
BRD4 BD2 WT [26] = biological target: T12, BRD4 BD2 WT; assay: competitive AlphaLISA; type: binding
BRDT BD2 L/V = BRDT BD2 L/V (Homo sapiens, UniProt Q58F21, L306V); assay: competitive AlphaLISA; type: binding
BRD3 BD2 WT [27] = biological target: T11, BRD3 BD2 WT; assay: ITC; type: binding
[28] = biological target: WT somatic BET bromodomains; assay: ITC; details: mean and SD of all somatic bromodomains
[29] = AlphaLISA pIC50 Value BRD4 BD1 L/V
[30] = AlphaLISA pIC50 Value BRD4 BD1 WT

T2 sequence (Q15059 24-144): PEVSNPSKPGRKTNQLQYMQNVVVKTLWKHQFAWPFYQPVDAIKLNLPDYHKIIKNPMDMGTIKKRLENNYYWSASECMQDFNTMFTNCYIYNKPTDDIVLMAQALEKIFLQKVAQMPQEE

Structure (SMILES): COC(=O)[C@H](C)[C@@H]1N=C(c2ccc(Cl)cc2)c2ccc(OC)cc2-n2c(C)nnc21 (racemic) [Compound 7]
- IC50 (BRD4 BD2 L/V [1]): 200 nM
- IC50 (BRD3 BD1 WT [2]): 1580 nM
- IC50 (BRDT BD1 WT): 5010 nM
- Kd (BRD2 BD1 WT [3]): 32000 nM
- Kd (BRD3 BD1 WT [4]): 12000 nM
- Kd (BRD4 BD1 WT [5]): 28000 nM
- Kd (BRD2 BD1 L/V [6]): 310 nM
- IC50 (BRDT BD1 L/V): 251 nM
- AlphaLISA pIC50 ± SD Δ [7]: 1.4 ± 0.2
- IC50 (BRD3 BD1 L/V [8]): 100 nM
- IC50 (BRD2 BD1 WT [9]): 3160 nM
- Kd (BRD2 BD2 L/V [10]): 330 nM
- ITC pKd ± SD Δ [11]: 2.0 ± 0.4
- Kd (BRD3 BD2 L/V [12]): 230 nM
- Kd (BRD3 BD1 L/V [13]): 140 nM
- IC50 (BRD4 BD1 L/V [14]; [29]): 200 nM
- ΔpIC50 BRD4 BD1 (BRD4 BD1 L/V [14]; L/V minus WT, total compound concentration): 1.4
- IC50 (BRD4 BD1 L/V [14]; pIC50 BRD4 BD1 L/V, separated enantiomers test, total compound concentration): 631 nM
- IC50 (BRD2 BD2 WT [15]): 7940 nM
- IC50 (BRD3 BD2 WT [16]): 5010 nM
- IC50 (BRD3 BD2 L/V [17]): 100 nM
- IC50 (BRD4 BD1 WT [18]; [30]): 3160 nM
- IC50 (BRD4 BD1 WT [18]; pIC50 BRD4 BD1 WT, separated enantiomers test, total compound concentration): 12600 nM
- Kd (BRD2 BD2 WT [19]): > 60000 nM
- Papp (in vitro): 15.8 ×10⁻⁶ cm/s
- ΔH BRD4 BD1 L/V (BRD4 BD1 L/V [20]; ITC, total compound concentration): -4.2 ± 0.0 kcal/mol
- Kd (BRD4 BD1 L/V [20]; ITC of separated enantiomers and racemates, total compound concentration): 500 ± 50 nM
- Kd (BRD4 BD1 L/V [20]; ITC, 30°C): 140 nM
- IC50 (BRD2 BD1 L/V [21]): 200 nM
- IC50 (BRDT BD2 WT): 7940 nM
- IC50 (BRD2 BD2 L/V [22]): 316 nM
- half-life at 50 µM (Plasma Half-life): > 3 h
- AlphaLISA pIC50 ± SD WT [23]: 5.4 ± 0.2
- CL int (Intrinsic Clearance): <0.5 ml min^–1 g^–1
- Kd (BRD4 BD2 L/V [24]): 980 nM
- Kd (BRD4 BD2 WT [25]): 33000 nM
- IC50 (BRD4 BD2 WT [26]): 6310 nM

Structure (SMILES): C=CC[C@@H](C(=O)NCC)[C@@H]1N=C(c2ccc(Cl)cc2)c2cc(OC)ccc2-n2c(C)nnc21 (relative stereo) [Compound 18]
- IC50 (BRD4 BD2 L/V [1]): 2000 nM
- IC50 (BRD3 BD1 WT [2]): 31600 nM
- IC50 (BRDT BD1 WT): 79400 nM
- IC50 (BRDT BD1 L/V): 5010 nM
- AlphaLISA pIC50 ± SD Δ [7]: 1.5 ± 0.1
- AlphaLISA pIC50 ± SD L/V [7]: 5.9 ± 0.2
- IC50 (BRD3 BD1 L/V [8]): 794 nM
- IC50 (BRD2 BD1 WT [9]): 50100 nM
- IC50 (BRD4 BD1 L/V [14]; [29]): 1260 nM
- IC50 (BRD2 BD2 WT [15]): 50100 nM
- IC50 (BRD3 BD2 WT [16]): 50100 nM
- IC50 (BRD3 BD2 L/V [17]): 1260 nM
- IC50 (BRD4 BD1 WT [18]; [30]): 39800 nM
- Papp (in vitro): 5.2 ×10⁻⁶ cm/s
- IC50 (BRD2 BD1 L/V [21]): 2510 nM
- IC50 (BRDT BD2 WT): 79400 nM
- IC50 (BRD2 BD2 L/V [22]): 1000 nM
- IC50 (BRDT BD2 L/V): 5010 nM
- half-life at 50 µM (Plasma Half-life): > 3 h
- AlphaLISA pIC50 ± SD WT [23]: 4.3 ± 0.1
- CL int (Intrinsic Clearance): 2.6 ml min^–1 g^–1
- IC50 (BRD4 BD2 WT [26]): 63100 nM

Structure (SMILES): CCNC(=O)[C@H](C)[C@@H]1N=C(c2ccc(Cl)cc2)c2ccc(OC)cc2-n2c(C)nnc21 (relative stereo) [Compound 21]
- IC50 (BRD4 BD2 L/V [1]): 1260 nM
- IC50 (BRD3 BD1 WT [2]): 5010 nM
- IC50 (BRDT BD1 WT): 50100 nM
- Kd (BRD2 BD1 WT [3]): > 60000 nM
- Kd (BRD4 BD1 WT [5]): 39000 nM
- ΔH BRD4 BD1 WT (BRD4 BD1 WT [5]; ITC): -3.3 kcal/mol
- Kd (BRD2 BD1 L/V [6]): 990 nM
- ΔH BRD2 BD1 L/V (BRD2 BD1 L/V [6]; ITC): -8.8 kcal/mol
- N BRD2 BD1 L/V (BRD2 BD1 L/V [6]; ITC stoichiometry): 0.97
- IC50 (BRDT BD1 L/V): 2510 nM
- AlphaLISA pIC50 ± SD Δ [7]: 1.3 ± 0.2
- AlphaLISA pIC50 ± SD L/V [7]: 6.0 ± 0.2
- IC50 (BRD3 BD1 L/V [8]): 501 nM
- IC50 (BRD2 BD1 WT [9]): 39800 nM
- Kd (BRD2 BD2 L/V [10]): 230 nM
- ΔH BRD2 BD2 L/V (BRD2 BD2 L/V [10]; ITC): -4.8 kcal/mol
- N BRD2 BD2 L/V (BRD2 BD2 L/V [10]; ITC stoichiometry): 0.84
- ITC pKd ± SD Δ [11]: 1.8 ± 0.5
- ITC pKd ± SD L/V ([11]; mean and SD of all somatic bromodomains): 6.3 ± 0.2
- Kd (BRD3 BD2 L/V [12]): 800 nM
- ΔH BRD3 BD2 L/V (BRD3 BD2 L/V [12]; ITC): -6.7 kcal/mol
- N BRD3 BD2 L/V (BRD3 BD2 L/V [12]; ITC stoichiometry): 0.90
- Kd (BRD3 BD1 L/V [13]): 410 nM
- ΔH BRD3 BD1 L/V (BRD3 BD1 L/V [13]; ITC): -10.7 kcal/mol
- N BRD3 BD1 L/V (BRD3 BD1 L/V [13]; ITC stoichiometry): 0.92
- IC50 (BRD4 BD1 L/V [14]; [29]): 1000 nM
- IC50 (BRD2 BD2 WT [15]): 15800 nM
- IC50 (BRD3 BD2 WT [16]): 15800 nM
- IC50 (BRD3 BD2 L/V [17]): 501 nM
- IC50 (BRD4 BD1 WT [18]; [30]): 25100 nM
- Papp (in vitro): 4 ×10⁻⁶ cm/s
- ΔH BRD4 BD1 L/V (BRD4 BD1 L/V [20]; ITC): -5.9 kcal/mol
- N BRD4 BD1 L/V (BRD4 BD1 L/V [20]; ITC stoichiometry): 0.88
- Kd (BRD4 BD1 L/V [20]; ITC, 30°C): 370 nM
- Kd (BRD3 BD2 WT [27]): 11000 nM
- ΔH BRD3 BD2 WT (BRD3 BD2 WT [27]; ITC): -4.5 kcal/mol
- N BRD3 BD2 WT (BRD3 BD2 WT [27]; ITC stoichiometry): 0.46
- IC50 (BRD2 BD1 L/V [21]): 2000 nM
- IC50 (BRDT BD2 WT): 25100 nM
- IC50 (BRD2 BD2 L/V [22]): 1000 nM
- IC50 (BRDT BD2 L/V): 1580 nM
- ITC pKd ± SD WT [28]: 4.5 ± 0.4
- half-life at 50 µM (Plasma Half-life): > 3 h
- AlphaLISA pIC50 ± SD WT [23]: 4.7 ± 0.3
- CL int (Intrinsic Clearance): 1.5 ml min^–1 g^–1
- Kd (BRD4 BD2 L/V [24]): 320 nM
- ΔH BRD4 BD2 L/V (BRD4 BD2 L/V [24]; ITC): -4.4 kcal/mol
- N BRD4 BD2 L/V (BRD4 BD2 L/V [24]; ITC stoichiometry): 1.06
- Kd (BRD4 BD2 WT [25]): > 60000 nM
- IC50 (BRD4 BD2 WT [26]): 31600 nM
